Patent US5676931A, “Aerosol drug formulations for use with non CFC propellants” (Abbott Laboratories, priority 1996, dated 1997)
Where two headings read alike, the source gives them in different places.

Assay: Biodistribution of SLS MDI formulation: drug concentrations in lung and blood (Table 5)
Format: in vivo, male Sprague-Dawley rats
Settings: rats
Method: A SLS (sodium lauryl sulfate) MDI formulation was tested in the following biodistribution study. One group of 13 male Sprague-Dawley rats, weighing 400 to 500 grams was used. This group of animals was dosed with a sodium lauryl sulfate-based R(+)-N-[3-[5-(4-fluorophenoxy)-2-furanyl]-1-methyl-2-propynyl]-N-hydroxyurea MDI formulation. Blood samples were collected at 0.083, 0.25, 0.5, 1, 2, 4 and 6 hours after dosing. One animal in each group was sacrificed at 0.25, 0.5, 1, 2, 4 and 6 hours after dosing for the determination of drug concentrations in the lung.

reproducibility of delivery (MDI formulations in HFA-134a): reproducibly delivered | fraction of theoretically delivered drug (lung) (SLS MDI, lung, time 0 hr, footnote c): 26.7% | drug concentration recovered from the lung following delivery (SLS-based MDI): about 67 μg/g | concentration at 0.083 h (rat, blood, inhaled or intranasal, SLS MDI 10 mg/mL drug, 0.3% SLS in HFA134a, 0.083 hr (n = 12)): 110 ± 80 ng/mL | concentration at 0.25 h (rat, blood, inhaled or intranasal, SLS MDI 10 mg/mL drug, 0.3% SLS in HFA134a, 0.25 hr (n = 12), read-out: Concentrations of Drug, Blood): 140 ± 70 ng/mL | concentration at 0.5 h (rat, blood, inhaled or intranasal, SLS MDI 10 mg/mL drug, 0.3% SLS in HFA134a, 0.5 hr (n = 9), read-out: Concentrations of Drug, Blood): 180 ± 80 ng/mL | concentration at 1 h (rat, blood, inhaled or intranasal, SLS MDI 10 mg/mL drug, 0.3% SLS in HFA134a, 1.0 hr (n = 8), read-out: Concentrations of Drug, Blood): 180 ± 60 ng/mL | concentration at 2 h (rat, blood, inhaled or intranasal, SLS MDI 10 mg/mL drug, 0.3% SLS in HFA134a, 2.0 hr (n = 6), read-out: Concentrations of Drug, Blood): 150 ± 60 ng/mL | concentration at 4 h (rat, blood, inhaled or intranasal, SLS MDI 10 mg/mL drug, 0.3% SLS in HFA134a, 4.0 hr (n = 4), read-out: Concentrations of Drug, Blood): 200 ± 40 ng/mL | concentration at 6 h (rat, blood, inhaled or intranasal, SLS MDI 10 mg/mL drug, 0.3% SLS in HFA134a, 6.0 hr (n = 2), read-out: Concentrations of Drug, Blood): 280 ± 270 ng/mL | concentration at 0.25 h (rat, lung, inhaled or intranasal, SLS MDI 10 mg/mL drug, 0.3% SLS in HFA134a, 0.25 hr, read-out: Concentrations of Drug, Lung): 14500 ± 6330 ng/g | concentration at 0.5 h (rat, lung, inhaled or intranasal, SLS MDI 10 mg/mL drug, 0.3% SLS in HFA134a, 0.5 hr, read-out: Concentrations of Drug, Lung): 12100 ± 4720 ng/g | concentration at 1 h (rat, lung, inhaled or intranasal, SLS MDI 10 mg/mL drug, 0.3% SLS in HFA134a, 1.0 hr, read-out: Concentrations of Drug, Lung): 13100 ± 15700 ng/g | concentration at 2 h (rat, lung, inhaled or intranasal, SLS MDI 10 mg/mL drug, 0.3% SLS in HFA134a, 2.0 hr, read-out: Concentrations of Drug, Lung): 16600 ± 13000 ng/g | concentration at 4 h (rat, lung, inhaled or intranasal, SLS MDI 10 mg/mL drug, 0.3% SLS in HFA134a, 4.0 hr, read-out: Concentrations of Drug, Lung): 8540 ± 3100 ng/g | concentration at 6 h (rat, lung, inhaled or intranasal, SLS MDI 10 mg/mL drug, 0.3% SLS in HFA134a, 6.0 hr, read-out: Concentrations of Drug, Lung): 9850 ± 2910 ng/g | Concentrations of Drug, Lung (SLS MDI 10 mg/mL drug, 0.3% SLS in HFA134a, 0 hr): 66.74 µg/g
SMILES: C[C@H](C#Cc1ccc(Oc2ccc(F)cc2)o1)N(O)C(N)=O [R(+)-N-[3-[5-(4-fluorophenoxy)-2-furanyl]-1-methyl-2-propynyl]-N-hydroxyurea]
